# ChEMBL document CHEMBL3885881, “DrugMatrix”
# Species on record: Rattus norvegicus
# Experiment: DrugMatrix - Regimen: Daily Repeat
# Format: toxicity, organism-based, Sprague-Dawley
# Parameters: regimen Daily Repeat, gender Male, age 6-8 weeks
# Settings: in vivo, po, route oral GAVAGE, vehicle .5 % CMC; for ABSOLUTE BASOPHIL / ABSOLUTE EOSINOPHIL / ABSOLUTE LYMPHOCYTE / ABSOLUTE MONOCYTE / ABSOLUTE SEGMENTED NEUTROPHIL / BASOPHIL / EOSINOPHIL / ERYTHROCYTE COUNT / HEMATOCRIT / HEMOGLOBIN / LEUKOCYTE COUNT / LYMPHOCYTE / MEAN CORPUSCULAR HEMOGLOBIN / MEAN CORPUSCULAR HEMOGLOBIN CONCENTRATION / MEAN CORPUSCULAR VOLUME / MONOCYTE / NEUTROPHIL / NUCLEATED RED BLOOD CELLS / PLATELET COUNT: tissue Blood; for ALANINE AMINOTRANSFERASE / ALBUMIN / ALKALINE PHOSPHATASE / ASPARTATE AMINOTRANSFERASE / BLOOD UREA NITROGEN / CARBON DIOXIDE / CHLORIDE / CHOLESTEROL / CREATINE PHOSPHOKINASE / CREATININE / GLUCOSE / LACTATE DEHYDROGENASE / LIPASE / PHOSPHORUS / POTASSIUM / SODIUM / TOTAL BILIRUBIN / TOTAL PROTEIN / URIC ACID: tissue Plasma
# [1] = 0 mg/kg, 72 h, dose level Control, time 3 day
# [2] = 0 mg/kg, 120 h, dose level Control, time 5 day
# [3] = 47 mg/kg, 72 h, dose level High, time 3 day
smiles,measurement,setting,value
CN(C)C(=O)C(CCN1CCC(O)(c2ccc(Cl)cc2)CC1)(c1ccccc1)c1ccccc1 [LOPERAMIDE],ABSOLUTE BASOPHIL,[1],0 CELLS/uL
same,ABSOLUTE EOSINOPHIL,[1],0 CELLS/uL
same,ABSOLUTE LYMPHOCYTE,[1],12191.17 CELLS/uL
same,ABSOLUTE MONOCYTE,[1],183.17 CELLS/uL
same,ABSOLUTE SEGMENTED NEUTROPHIL,[1],1192.33 CELLS/uL
same,BASOPHIL,[1],0%
same,EOSINOPHIL,[1],0%
same,ERYTHROCYTE COUNT,[1],5.51 x10E6/uL
same,HEMATOCRIT,[1],35.45%
same,HEMOGLOBIN,[1],13.82 G/DL
same,LEUKOCYTE COUNT,[1],13.57 x10E3/uL
same,LYMPHOCYTE,[1],89.83%
same,MEAN CORPUSCULAR HEMOGLOBIN,[1],25.1 pg
same,MEAN CORPUSCULAR HEMOGLOBIN CONCENTRATION,[1],38.98 G/DL
same,MEAN CORPUSCULAR VOLUME,[1],64.42 fL
same,MONOCYTE,[1],1.33%
same,NEUTROPHIL,[1],8.83%
same,NUCLEATED RED BLOOD CELLS,[1],0 /100WBC
same,PLATELET COUNT,[1],1118.17 x10E3/uL
same,ALANINE AMINOTRANSFERASE,[1],55 u/L
same,ALBUMIN,[1],4.15 G/DL
same,ALKALINE PHOSPHATASE,[1],449.5 u/L
same,ASPARTATE AMINOTRANSFERASE,[1],112.83 u/L
same,BLOOD UREA NITROGEN,[1],17.33 mg/dL
same,CARBON DIOXIDE,[1],29.5 mmol/L
same,CHLORIDE,[1],101 MEQ/L
same,CHOLESTEROL,[1],70 mg/dL
same,CREATINE PHOSPHOKINASE,[1],1325.83 u/L
same,CREATININE,[1],0.18 mg/dL
same,GLUCOSE,[1],171.5 mg/dL
same,LACTATE DEHYDROGENASE,[1],386 u/L
same,LIPASE,[1],10 u/L
same,PHOSPHORUS,[1],11.57 mg/dL
same,POTASSIUM,[1],6.21 MEQ/L
same,SODIUM,[1],141.65 MEQ/L
same,TOTAL BILIRUBIN,[1],0.15 mg/dL
same,TOTAL PROTEIN,[1],5.75 G/DL
same,URIC ACID,[1],1.28 mg/dL
same,ABSOLUTE BASOPHIL,[2],0 CELLS/uL
same,ABSOLUTE EOSINOPHIL,[2],138.17 CELLS/uL
same,ABSOLUTE LYMPHOCYTE,[2],13283.17 CELLS/uL
same,ABSOLUTE MONOCYTE,[2],303.83 CELLS/uL
same,ABSOLUTE SEGMENTED NEUTROPHIL,[2],1308.17 CELLS/uL
same,BASOPHIL,[2],0%
same,EOSINOPHIL,[2],1%
same,ERYTHROCYTE COUNT,[2],5.32 x10E6/uL
same,HEMATOCRIT,[2],33.8%
same,HEMOGLOBIN,[2],13.63 G/DL
same,LEUKOCYTE COUNT,[2],15.03 x10E3/uL
same,LYMPHOCYTE,[2],88.33%
same,MEAN CORPUSCULAR HEMOGLOBIN,[2],25.68 pg
same,MEAN CORPUSCULAR HEMOGLOBIN CONCENTRATION,[2],40.35 G/DL
same,MEAN CORPUSCULAR VOLUME,[2],63.67 fL
same,MONOCYTE,[2],1.83%
same,NEUTROPHIL,[2],8.83%
same,NUCLEATED RED BLOOD CELLS,[2],0 /100WBC
same,PLATELET COUNT,[2],1097.5 x10E3/uL
same,ALANINE AMINOTRANSFERASE,[2],54.5 u/L
same,ALBUMIN,[2],4.27 G/DL
same,ALKALINE PHOSPHATASE,[2],337 u/L
same,ASPARTATE AMINOTRANSFERASE,[2],94.67 u/L
same,BLOOD UREA NITROGEN,[2],17 mg/dL
same,CARBON DIOXIDE,[2],28.33 mmol/L
same,CHLORIDE,[2],101.5 MEQ/L
same,CHOLESTEROL,[2],71.33 mg/dL
same,CREATINE PHOSPHOKINASE,[2],628.17 u/L
same,CREATININE,[2],0.19 mg/dL
same,GLUCOSE,[2],177.83 mg/dL
same,LACTATE DEHYDROGENASE,[2],500.5 u/L
same,LIPASE,[2],9.5 u/L
same,PHOSPHORUS,[2],12.3 mg/dL
same,POTASSIUM,[2],5.63 MEQ/L
same,SODIUM,[2],143.03 MEQ/L
same,TOTAL BILIRUBIN,[2],0.2 mg/dL
same,TOTAL PROTEIN,[2],6.02 G/DL
same,URIC ACID,[2],1.5 mg/dL
same,ABSOLUTE BASOPHIL,[3],0 CELLS/uL
same,ABSOLUTE EOSINOPHIL,[3],41.67 CELLS/uL
same,ABSOLUTE LYMPHOCYTE,[3],10763.67 CELLS/uL
same,ABSOLUTE MONOCYTE,[3],116.33 CELLS/uL
same,ABSOLUTE SEGMENTED NEUTROPHIL,[3],1178.33 CELLS/uL
same,BASOPHIL,[3],0%
same,EOSINOPHIL,[3],0.33%
same,ERYTHROCYTE COUNT,[3],5.35 x10E6/uL
same,HEMATOCRIT,[3],35.5%
same,HEMOGLOBIN,[3],13.67 G/DL
same,LEUKOCYTE COUNT,[3],12.1 x10E3/uL
same,LYMPHOCYTE,[3],89%
same,MEAN CORPUSCULAR HEMOGLOBIN,[3],25.6 pg
same,MEAN CORPUSCULAR HEMOGLOBIN CONCENTRATION,[3],38.47 G/DL
same,MEAN CORPUSCULAR VOLUME,[3],66.47 fL
same,MONOCYTE,[3],1%
same,NEUTROPHIL,[3],9.67%
same,NUCLEATED RED BLOOD CELLS,[3],0 /100WBC
same,PLATELET COUNT,[3],1353 x10E3/uL
same,ALANINE AMINOTRANSFERASE,[3],75 u/L
same,ALBUMIN,[3],3.9 G/DL
same,ALKALINE PHOSPHATASE,[3],286.67 u/L
same,ASPARTATE AMINOTRANSFERASE,[3],88 u/L
same,BLOOD UREA NITROGEN,[3],15 mg/dL
same,CARBON DIOXIDE,[3],30.67 mmol/L
same,CHLORIDE,[3],102 MEQ/L
same,CHOLESTEROL,[3],68 mg/dL
same,CREATINE PHOSPHOKINASE,[3],336.67 u/L
same,CREATININE,[3],0.15 mg/dL
same,GLUCOSE,[3],144.33 mg/dL
same,LACTATE DEHYDROGENASE,[3],285.33 u/L
same,LIPASE,[3],9.33 u/L
same,PHOSPHORUS,[3],11.33 mg/dL
same,POTASSIUM,[3],6.22 MEQ/L
same,SODIUM,[3],144.77 MEQ/L
same,TOTAL BILIRUBIN,[3],0.1 mg/dL
same,TOTAL PROTEIN,[3],5.5 G/DL
same,URIC ACID,[3],1.43 mg/dL
